Several values for one entry are separate records, joined by “and”; a condition that tells them apart may be missing. Identical values can stand only once.
Experiment: Drug tolerability (body weight) in TC-71 Ewing sarcoma xenograft model
Assay type: in vivo, Athymic nude mice
Conditions: for BWL %: negative = loss vs day 9
Experimental: Experiments were performed with female Athymic nude mice, 9-10 weeks old obtained from Harlan Laboratories (Udine, Italy). They were maintained under Specific Pathogen Free conditions with constant temperature and humidity, according to the institutional guidelines.
Tumour growth mice was monitored two/three times a week (depending on tumour growth rate, to avoid unnecessary stress to the animals) by Vernier caliper. Mice were sacrificed when tumour reached a mean weight of 2±0.5 gr. The antitumour activity will be expressed as T/C %, where T and C were the mean tumour weight of treated and control groups, respectively. Mice were monitored daily and weighted at least two times a week. Tolerability was evaluated on the basis of body weight loss (BWL) and clinical observation.

[1] = EDO40: EDO-S101 40 mg/kg, day 9 from tumour inoculum (treatment start)
[2] = EDO40: EDO-S101 40 mg/kg, day 10 from tumour inoculum
[3] = EDO40: EDO-S101 40 mg/kg, day 11 from tumour inoculum
[4] = EDO40: EDO-S101 40 mg/kg, day 14 from tumour inoculum
[5] = EDO40: EDO-S101 40 mg/kg, day 16 from tumour inoculum
[6] = EDO40: EDO-S101 40 mg/kg, day 18 from tumour inoculum
[7] = EDO40: EDO-S101 40 mg/kg, day 21 from tumour inoculum
[8] = EDO40: EDO-S101 40 mg/kg, day 23 from tumour inoculum
[9] = EDO40: EDO-S101 40 mg/kg, day 25 from tumour inoculum
[10] = EDO40: EDO-S101 40 mg/kg, day 28 from tumour inoculum
[11] = EDO40: EDO-S101 40 mg/kg, day 30 from tumour inoculum
[12] = EDO40: EDO-S101 40 mg/kg, day 32 from tumour inoculum
[13] = EDO60: EDO-S101 60 mg/kg, day 9 from tumour inoculum (treatment start)
[14] = EDO60: EDO-S101 60 mg/kg, day 10 from tumour inoculum
[15] = EDO60: EDO-S101 60 mg/kg, day 11 from tumour inoculum
[16] = EDO60: EDO-S101 60 mg/kg, day 14 from tumour inoculum
[17] = EDO60: EDO-S101 60 mg/kg, day 16 from tumour inoculum
[18] = EDO60: EDO-S101 60 mg/kg, day 18 from tumour inoculum
[19] = EDO60: EDO-S101 60 mg/kg, day 21 from tumour inoculum
[20] = EDO60: EDO-S101 60 mg/kg, day 23 from tumour inoculum
[21] = EDO60: EDO-S101 60 mg/kg, day 25 from tumour inoculum
[22] = EDO60: EDO-S101 60 mg/kg, day 28 from tumour inoculum
[23] = EDO60: EDO-S101 60 mg/kg, day 30 from tumour inoculum
[24] = EDO60: EDO-S101 60 mg/kg, day 32 from tumour inoculum
[25] = EDO60: EDO-S101 60 mg/kg, day 35 from tumour inoculum
[26] = EDO60: EDO-S101 60 mg/kg, day 38 from tumour inoculum
[27] = EDO60: EDO-S101 60 mg/kg, day 42 from tumour inoculum
[28] = EDO60: EDO-S101 60 mg/kg, day 46 from tumour inoculum
[29] = EDO60: EDO-S101 60 mg/kg, day 49 from tumour inoculum
[30] = EDO60: EDO-S101 60 mg/kg, day 53 from tumour inoculum
[31] = EDO60: EDO-S101 60 mg/kg, day 56 from tumour inoculum
[32] = EDO80: EDO-S101 80 mg/kg, day 9 from tumour inoculum (treatment start)
[33] = EDO80: EDO-S101 80 mg/kg, day 10 from tumour inoculum
[34] = EDO80: EDO-S101 80 mg/kg, day 11 from tumour inoculum
[35] = EDO80: EDO-S101 80 mg/kg, day 14 from tumour inoculum
[36] = EDO80: EDO-S101 80 mg/kg, day 16 from tumour inoculum
[37] = EDO80: EDO-S101 80 mg/kg, day 18 from tumour inoculum
[38] = EDO80: EDO-S101 80 mg/kg, day 21 from tumour inoculum
[39] = EDO80: EDO-S101 80 mg/kg, day 23 from tumour inoculum
[40] = EDO80: EDO-S101 80 mg/kg, day 25 from tumour inoculum
[41] = EDO80: EDO-S101 80 mg/kg, day 28 from tumour inoculum
[42] = EDO80: EDO-S101 80 mg/kg, day 30 from tumour inoculum
[43] = EDO80: EDO-S101 80 mg/kg, day 32 from tumour inoculum
[44] = EDO80: EDO-S101 80 mg/kg, day 35 from tumour inoculum
[45] = EDO80: EDO-S101 80 mg/kg, day 38 from tumour inoculum
[46] = EDO80: EDO-S101 80 mg/kg, day 42 from tumour inoculum
[47] = EDO80: EDO-S101 80 mg/kg, day 46 from tumour inoculum
[48] = EDO80: EDO-S101 80 mg/kg, day 49 from tumour inoculum

Structure (SMILES): Cn1c(CCCCCCC(=O)NO)nc2cc(N(CCCl)CCCl)ccc21 [EDO-S101, 7-(5-(bis(2-chloroethyl)amino)-1-methyl-1H-benzo[d]imidazol-2-yl)-N-hydroxyheptanamide]
- mice found dead (40 mg/kg group, unknown reasons, probably not ascribable to the drug): One
- maximum BWL (40 mg/kg, day 10, 24 h after the first dose): 5.4%
- maximum BWL (60 mg/kg, day 25, 48 h after the third dose): 11.7%
- maximum body weight loss (80 mg/kg, day 14, 5 days after administration): 19.3%
- time to recovery from body weight loss (80 mg/kg, recovered by day 24): ≤ 10 days
- Mouse body weight, group Mean [1]: 27.0 g
- BWL % [1]: 0.0%
- Mouse body weight, group Mean [2]: 25.6 g
- BWL % [2]: −5.4%
- Mouse body weight, group Mean [3]: 25.9 g
- BWL % [3]: −4.0%
- Mouse body weight, group Mean [4]: 26.6 g
- BWL % [4]: −1.6%
- Mouse body weight, group Mean [5]: 27.2 g
- BWL % [5]: 0.7%
- Mouse body weight, group Mean [6]: 26.1 g
- BWL % [6]: −3.4%
- Mouse body weight, group Mean [7]: 26.2 g
- BWL % [7]: −3.0%
- Mouse body weight, group Mean [8]: 27.1 g
- BWL % [8]: 0.3%
- Mouse body weight, group Mean [9]: 26.3 g
- BWL % [9]: −2.9%
- Mouse body weight, group Mean [10]: 27.7 g
- BWL % [10]: 2.3%
- Mouse body weight, group Mean [11]: 28.5 g
- BWL % [11]: 5.3%
- Mouse body weight, group Mean [12]: 28.7 g
- BWL % [12]: 6.0%
- Mouse body weight, group Mean [13]: 27.6 g
- BWL % [13]: 0.0%
- Mouse body weight, group Mean [14]: 25.6 g
- BWL % [14]: −7.0%
- Mouse body weight, group Mean [15]: 25.2 g
- BWL % [15]: −8.6%
- Mouse body weight, group Mean [16]: 25.4 g
- BWL % [16]: −8.1%
- Mouse body weight, group Mean [17]: 26.2 g
- BWL % [17]: −5.1%
- Mouse body weight, group Mean [18]: 25.2 g
- BWL % [18]: −8.8%
- Mouse body weight, group Mean [19]: 24.9 g
- BWL % [19]: −9.8%
- Mouse body weight, group Mean [20]: 25.0 g
- BWL % [20]: −9.2%
- Mouse body weight, group Mean [21]: 24.4 g
- BWL % [21]: −11.7%
- Mouse body weight, group Mean [22]: 25.3 g
- BWL % [22]: −8.3%
- Mouse body weight, group Mean [23]: 25.6 g
- BWL % [23]: −7.3%
- Mouse body weight, group Mean [24]: 26.4 g
- BWL % [24]: −4.2%
- Mouse body weight, group Mean [25]: 25.4 g
- BWL % [25]: −8.0%
- Mouse body weight, group Mean [26]: 25.8 g
- BWL % [26]: −6.6%
- Mouse body weight, group Mean [27]: 25.8 g
- BWL % [27]: −6.5%
- Mouse body weight, group Mean [28]: 25.1 g
- BWL % [28]: −8.9%
- Mouse body weight, group Mean [29]: 25.4 g
- BWL % [29]: −8.1%
- Mouse body weight, group Mean [30]: 26.7 g
- BWL % [30]: −3.1%
- Mouse body weight, group Mean [31]: 28.1 g
- BWL % [31]: 2.0%
- Mouse body weight, group Mean [32]: 27.9 g
- Mouse body weight, individual mice (EDO80: EDO-S101 80 mg/kg, day 9 from tumour inoculum (treatment start), 80 mg/kg): 28.4 g and 25.3 g and 26.1 g and 26.6 g and 28.5 g and 27.5 g and 32 g and 28.7 g
- BWL % [32]: 0.0%
- Mouse body weight, group Mean [33]: 25.3 g
- Mouse body weight, individual mice (EDO80: EDO-S101 80 mg/kg, day 10 from tumour inoculum, 80 mg/kg): 25.1 g and 22.8 g and 24 g and 24.8 g and 26.8 g and 24.4 g and 28.6 g and 25.5 g
- BWL % [33]: −9.5%
- Mouse body weight, group Mean [34]: 24.8 g
- Mouse body weight, individual mice (EDO80: EDO-S101 80 mg/kg, day 11 from tumour inoculum, 80 mg/kg): 24.9 g and 22.6 g and 23.5 g and 24.7 g and 26 g and 24.4 g and 27.9 g and 24.3 g
- BWL % [34]: −11.1%
- Mouse body weight, group Mean [35]: 22.5 g
- Mouse body weight, individual mice (EDO80: EDO-S101 80 mg/kg, day 14 from tumour inoculum, 80 mg/kg): 21.8 g and 19.4 g and 22.4 g and 23.5 g and 23.2 g (2×) and 23.8 g and 22.7 g
- BWL % [35]: −19.3%
- Mouse body weight, group Mean [36]: 23.9 g
- Mouse body weight, individual mice (EDO80: EDO-S101 80 mg/kg, day 16 from tumour inoculum, 80 mg/kg): 23.3 g and 19.7 g and 24.2 g and 25.1 g and 24.8 g and 24.4 g and 26.9 g and 22.9 g
- BWL % [36]: −14.3%
- Mouse body weight, group Mean [37]: 25.2 g
- Mouse body weight, individual mice (EDO80: EDO-S101 80 mg/kg, day 18 from tumour inoculum, 80 mg/kg): 24.1 g and 22.2 g and 24.8 g and 26 g and 27 g and 26.1 g and 28 g
- BWL % [37]: −9.6%
- Mouse body weight, group Mean [38]: 26.2 g
- Mouse body weight, individual mice (EDO80: EDO-S101 80 mg/kg, day 21 from tumour inoculum, 80 mg/kg): 25.7 g and 22.6 g and 26.5 g and 26.2 g and 27.4 g and 26.3 g and 29.6 g and 25.2 g
- BWL % [38]: −6.1%
- Mouse body weight, group Mean [39]: 26.6 g
- Mouse body weight, individual mice (EDO80: EDO-S101 80 mg/kg, day 23 from tumour inoculum, 80 mg/kg): 26.1 g and 23.8 g and 26.6 g (3×) and 27.9 g and 30.1 g and 25.2 g
- BWL % [39]: −4.6%
- Mouse body weight, group Mean [40]: 27.8 g
- Mouse body weight, individual mice (EDO80: EDO-S101 80 mg/kg, day 25 from tumour inoculum, 80 mg/kg): 27 g and 25.1 g and 27.9 g and 27.7 g and 28.8 g
- BWL % [40]: −0.4%
- Mouse body weight, group Mean [41]: 28.9 g
- Mouse body weight, individual mice (EDO80: EDO-S101 80 mg/kg, day 28 from tumour inoculum, 80 mg/kg): 27.9 g and 25.4 g and 28.7 g and 28.1 g
- BWL % [41]: 3.6%
- Mouse body weight, group Mean [42]: 28.5 g
- Mouse body weight, individual mice (EDO80: EDO-S101 80 mg/kg, day 30 from tumour inoculum, 80 mg/kg): 28.2 g and 25.3 g and 27.3 g and 27.9 g
- BWL % [42]: 2.1%
- Mouse body weight, group Mean [43]: 28.0 g
- Mouse body weight, individual mice (EDO80: EDO-S101 80 mg/kg, day 32 from tumour inoculum, 80 mg/kg): 27.4 g (2×) and 24.9 g and 26.6 g
- BWL % [43]: 0.4%
- Mouse body weight, group Mean [44]: 25.1 g
- Mouse body weight, individual mice (EDO80: EDO-S101 80 mg/kg, day 35 from tumour inoculum, 80 mg/kg): 24.4 g and 21.9 g and 24.8 g and 26.1 g
- BWL % [44]: −9.9%
- Mouse body weight, group Mean [45]: 25.0 g
- Mouse body weight, individual mice (EDO80: EDO-S101 80 mg/kg, day 38 from tumour inoculum, 80 mg/kg): 24.4 g and 21.8 g and 25.1 g and 25.3 g
- BWL % [45]: −10.4%
- Mouse body weight, group Mean [46]: 27.1 g
- Mouse body weight, individual mice (EDO80: EDO-S101 80 mg/kg, day 42 from tumour inoculum, 80 mg/kg): 26.3 g and 23.1 g and 27 g and 28 g
- BWL % [46]: −2.9%
- Mouse body weight, group Mean [47]: 28.8 g
- Mouse body weight, individual mice (EDO80: EDO-S101 80 mg/kg, day 46 from tumour inoculum, 80 mg/kg): 28.6 g and 25.3 g and 28.3 g and 30 g
- BWL % [47]: 3.1%
- Mouse body weight, group Mean [48]: 30.2 g
- Mouse body weight, individual mice (EDO80: EDO-S101 80 mg/kg, day 49 from tumour inoculum, 80 mg/kg): 29.8 g and 26 g and 30 g and 32.3 g
- BWL % [48]: 8.2%
- BWL during second cycle (all dose regimens): < 9%

— patent publication US12257237B2 (priority 2017, dated 2025)
